{"source": "patent US8940915B2", "about": "“Solvent for recovery of maleic anhydride from a gas stream” (Huntsman Petrochemical LLC, priority 2011, dated 2015)", "key": {"[1]": {"test": "Solubility of fumaric acid in the solvent", "format": "physicochemical", "details": "fumaric acid dissolved in dibutyl adipate, at 60° C."}, "Solubility in water": {"test": "Solubility in water", "format": "physicochemical", "details": "at 25° C."}, "[2]": {"test": "Solubility of maleic anhydride in the solvent", "format": "physicochemical", "details": "maleic anhydride dissolved in dibutyl adipate, at 60° C."}}, "data": [{"smiles": "CCCCOC(=O)CCCCC(=O)OCCCC", "note": "[dibutyl adipate, Di-n-butyl adipate]", "values": [{"measurement": "Solubility of Fumaric Acid", "setting": "[1]", "result": "about 0.15 wt % at 60 °C"}, {"measurement": "solubility", "setting": "Solubility in water", "result": 35, "unit": "µg/mL"}, {"measurement": "Toxicity (in words)", "setting": "Toxicity statement", "result": "neither dibutyl adipate nor any of its hydrolysis products is toxic"}, {"measurement": "Solubility of Maleic Anhydride", "setting": "[2]", "result": ">20", "unit": "wt % at 60 °C"}]}]}
